Reference: PubChem BioAssay AID2060903 (Molecular Pharmacology Branch, DTP, NCI, 2025)
pIC50: −log10 of the molar value.

Test system: 377384-186-R-J1-PDC complex spheroid viability
Assay: Anticancer human tumor 377384-186-R-J1-PDC patient-derived pancreatic carcinoma cell line growth inhibition [RAS]
Details: for pIC50: curve of first compound; for viability, T/C: stronger effect = lower value
Outline: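 Tumour cells grown as complex spheroids with HUVEC endothelial cells and mesenchymal stem cells, treated with RAS pathway inhibitor combinations. Each agent spans half-log steps from near clinical Cmax, or 10 microM where Cmax is unknown.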

[1] = second compound 0.0316 µM, first compound 0.0316 µM
[2] = second compound 0.0316 µM, first compound 0.1 µM
[3] = second compound 0.0316 µM, first compound 0.316 µM
[4] = second compound 0.0316 µM, first compound 1 µM
[5] = second compound 0.1 µM, first compound 0.0316 µM
[6] = second compound 0.1 µM, first compound 0.1 µM
[7] = second compound 0.1 µM, first compound 0.316 µM
[8] = second compound 0.1 µM, first compound 1 µM
[9] = second compound 0.316 µM, first compound 0.0316 µM
[10] = second compound 0.316 µM, first compound 0.1 µM
[11] = second compound 0.316 µM, first compound 0.316 µM
[12] = second compound 0.316 µM, first compound 1 µM
[13] = second compound 1 µM, first compound 0.0316 µM
[14] = second compound 1 µM, first compound 0.1 µM
[15] = second compound 1 µM, first compound 0.316 µM
[16] = second compound 1 µM, first compound 1 µM
[17] = second compound 3.16 µM, first compound 0.0316 µM
[18] = second compound 3.16 µM, first compound 0.1 µM
[19] = second compound 3.16 µM, first compound 0.316 µM
[20] = second compound 3.16 µM, first compound 1 µM
[21] = second compound 10 µM, first compound 0.0316 µM
[22] = second compound 10 µM, first compound 0.1 µM
[23] = second compound 10 µM, first compound 0.316 µM
[24] = second compound 10 µM, first compound 1 µM
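Also: spheroids exposed to compounds for seven days before readout.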

## CC(=O)OC12COC1CC(O)C1(C)C(=O)C(O)C3=C(C)C(OC(=O)C(O)C(NC(=O)OC(C)(C)C)c4ccccc4)CC(O)(C(OC(=O)c4ccccc4)C21)C3(C)C (stereo unspecified) + C#Cc1c(F)ccc2cc(O)cc(-c3ncc4c(N5CC6CCC(C5)N6)nc(OCC56CCCN5CC(F)C6)nc4c3F)c12
Second compound 0.0316 µM
  pIC50: > 7.50
Second compound 0.1 µM
  pIC50: > 7.50
Second compound 0.316 µM
  pIC50: > 7.50
Second compound 1 µM
  pIC50: > 7.50
Second compound 3.16 µM
  pIC50: > 7.50
Second compound 10 µM
  pIC50: > 7.50
[1]
  viability, T/C: 2.38%
[2]
  viability, T/C: 3.09%
[3]
  viability, T/C: 3.14%
[4]
  viability, T/C: 3.55%
Second compound 0.0316 µM, first compound 3.16 µM
  viability, T/C: 3.94%
Second compound 0.0316 µM, first compound 10 µM
  viability, T/C: 3.06%
[5]
  viability, T/C: 2.23%
[6]
  viability, T/C: 2.57%
[7]
  viability, T/C: 2.12%
[8]
  viability, T/C: 1.89%
Second compound 0.1 µM, first compound 3.16 µM
  viability, T/C: 1.87%
Second compound 0.1 µM, first compound 10 µM
  viability, T/C: 3.18%
[9]
  viability, T/C: 2.05%
[10]
  viability, T/C: 2.18%
[11]
  viability, T/C: 2%
[12]
  viability, T/C: 2.01%
Second compound 0.316 µM, first compound 3.16 µM
  viability, T/C: 2.08%
Second compound 0.316 µM, first compound 10 µM
  viability, T/C: 1.78%
[13]
  viability, T/C: 1.73%
[14]
  viability, T/C: 1.59%
[15]
  viability, T/C: 1.53%
[16]
  viability, T/C: 1.76%
Second compound 1 µM, first compound 3.16 µM
  viability, T/C: 1.09%
Second compound 1 µM, first compound 10 µM
  viability, T/C: 1.72%
[17]
  viability, T/C: 1.58%
[18]
  viability, T/C: 1.73%
[19]
  viability, T/C: 1.51%
[20]
  viability, T/C: 1.74%
Second compound 3.16 µM, first compound 3.16 µM
  viability, T/C: 1.58%
Second compound 3.16 µM, first compound 10 µM
  viability, T/C: 1.95%
[21]
  viability, T/C: 0.77%
[22]
  viability, T/C: 0.5%
[23]
  viability, T/C: 0.68%
[24]
  viability, T/C: 0.75%
Second compound 10 µM, first compound 3.16 µM
  viability, T/C: 0.42%
Second compound 10 µM, first compound 10 µM
  viability, T/C: 0.94%

## CCc1c2c(nc3ccc(O)cc13)-c1cc3c(c(=O)n1C2)COC(=O)[C@]3(O)CC + C#Cc1c(F)ccc2cc(O)cc(-c3ncc4c(N5CC6CCC(C5)N6)nc(OCC56CCCN5CC(F)C6)nc4c3F)c12
Second compound 0.0316 µM
  pIC50: > 9.02
Second compound 0.1 µM
  pIC50: > 9.02
Second compound 0.316 µM
  pIC50: > 9.02
Second compound 1 µM
  pIC50: > 9.02
Second compound 3.16 µM
  pIC50: > 9.02
Second compound 10 µM
  pIC50: > 9.02
Second compound 0.0316 µM, first compound 0.000949 µM
  viability, T/C: 19.9%
Second compound 0.0316 µM, first compound 0.003 µM
  viability, T/C: 11.3%
Second compound 0.0316 µM, first compound 0.00949 µM
  viability, T/C: 6.54%
Second compound 0.0316 µM, first compound 0.03 µM
  viability, T/C: 4.38%
Second compound 0.0316 µM, first compound 0.0949 µM
  viability, T/C: 1.63%
Second compound 0.0316 µM, first compound 0.3 µM
  viability, T/C: 1.45%
Second compound 0.1 µM, first compound 0.000949 µM
  viability, T/C: 10.2%
Second compound 0.1 µM, first compound 0.003 µM
  viability, T/C: 5.47%
Second compound 0.1 µM, first compound 0.00949 µM
  viability, T/C: 3.3%
Second compound 0.1 µM, first compound 0.03 µM
  viability, T/C: 2.38%
Second compound 0.1 µM, first compound 0.0949 µM
  viability, T/C: 1.62%
Second compound 0.1 µM, first compound 0.3 µM
  viability, T/C: 1.48%
Second compound 0.316 µM, first compound 0.000949 µM
  viability, T/C: 4.45%
Second compound 0.316 µM, first compound 0.003 µM
  viability, T/C: 3.34%
Second compound 0.316 µM, first compound 0.00949 µM
  viability, T/C: 2.87%
Second compound 0.316 µM, first compound 0.03 µM
  viability, T/C: 1.65%
Second compound 0.316 µM, first compound 0.0949 µM
  viability, T/C: 1.51%
Second compound 0.316 µM, first compound 0.3 µM
  viability, T/C: 1.36%
Second compound 1 µM, first compound 0.000949 µM
  viability, T/C: 3.89%
Second compound 1 µM, first compound 0.003 µM
  viability, T/C: 2.04%
Second compound 1 µM, first compound 0.00949 µM
  viability, T/C: 2.4%
Second compound 1 µM, first compound 0.03 µM
  viability, T/C: 1.31%
Second compound 1 µM, first compound 0.0949 µM
  viability, T/C: 1.14%
Second compound 1 µM, first compound 0.3 µM
  viability, T/C: 1.05%
Second compound 3.16 µM, first compound 0.000949 µM
  viability, T/C: 1.66%
Second compound 3.16 µM, first compound 0.003 µM
  viability, T/C: 2.07%
Second compound 3.16 µM, first compound 0.00949 µM
  viability, T/C: 2.02%
Second compound 3.16 µM, first compound 0.03 µM
  viability, T/C: 1.73%
Second compound 3.16 µM, first compound 0.0949 µM
  viability, T/C: 1.46%
Second compound 3.16 µM, first compound 0.3 µM
  viability, T/C: 0.91%
Second compound 10 µM, first compound 0.000949 µM
  viability, T/C: 1.73%
Second compound 10 µM, first compound 0.003 µM
  viability, T/C: 0.98%
Second compound 10 µM, first compound 0.00949 µM
  viability, T/C: 1.39%
Second compound 10 µM, first compound 0.03 µM
  viability, T/C: 1.15%
Second compound 10 µM, first compound 0.0949 µM
  viability, T/C: 0.97%
Second compound 10 µM, first compound 0.3 µM
  viability, T/C: 0.48%

## Nc1ccn(C2OC(CO)C(O)C2(F)F)c(=O)n1 (stereo unspecified) + C#Cc1c(F)ccc2cc(O)cc(-c3ncc4c(N5CC6CCC(C5)N6)nc(OCC56CCCN5CC(F)C6)nc4c3F)c12
Second compound 0.0316 µM
  pIC50: > 8.50
Second compound 0.1 µM
  pIC50: > 8.50
Second compound 0.316 µM
  pIC50: > 8.50
Second compound 1 µM
  pIC50: > 8.50
Second compound 3.16 µM
  pIC50: > 8.50
Second compound 10 µM
  pIC50: > 8.50
Second compound 0.0316 µM, first compound 0.00316 µM
  viability, T/C: 18.7%
Second compound 0.0316 µM, first compound 0.01 µM
  viability, T/C: 10.9%
[1]
  viability, T/C: 5.1%
[2]
  viability, T/C: 2.32%
[3]
  viability, T/C: 1.53%
[4]
  viability, T/C: 1.48%
Second compound 0.1 µM, first compound 0.00316 µM
  viability, T/C: 10.6%
Second compound 0.1 µM, first compound 0.01 µM
  viability, T/C: 5.99%
[5]
  viability, T/C: 3.67%
[6]
  viability, T/C: 2.25%
[7]
  viability, T/C: 1.8%
[8]
  viability, T/C: 1.59%
Second compound 0.316 µM, first compound 0.00316 µM
  viability, T/C: 3.96%
Second compound 0.316 µM, first compound 0.01 µM
  viability, T/C: 3.01%
[9]
  viability, T/C: 2.14%
[10]
  viability, T/C: 1.91%
[11]
  viability, T/C: 1.53%
[12]
  viability, T/C: 1.47%
Second compound 1 µM, first compound 0.00316 µM
  viability, T/C: 2.36%
Second compound 1 µM, first compound 0.01 µM
  viability, T/C: 2.41%
[13]
  viability, T/C: 1.7%
[14]
  viability, T/C: 1.46%
[15]
  viability, T/C: 1.44%
[16]
  viability, T/C: 1.36%
Second compound 3.16 µM, first compound 0.00316 µM
  viability, T/C: 2.1%
Second compound 3.16 µM, first compound 0.01 µM
  viability, T/C: 1.41%
[17]
  viability, T/C: 1.83%
[18]
  viability, T/C: 1.8%
[19]
  viability, T/C: 1.48%
[20]
  viability, T/C: 1.3%
Second compound 10 µM, first compound 0.00316 µM
  viability, T/C: 1.37%
Second compound 10 µM, first compound 0.01 µM
  viability, T/C: 1.08%
[21]
  viability, T/C: 1.21%
[22]
  viability, T/C: 1.3%
[23]
  viability, T/C: 1.62%
[24]
  viability, T/C: 1.15%
